The values below come from US20180111913A1, “SUBSTITUTED BENZOFURAN DERIVATIVES AS NOVEL ANTIMYCOBACTERIAL AGENTS” (priority 2015, published 2018).

The subject of series [1] is human dermal fibroblast (HDF) cells. The following applies: for Survival vs. Control: HDF cell survival relative to DMSO-only control at the first (or only) Non-Toxic Concentration value; for Non-Toxic Concentration: human, 48 h.
For series [2], the target named is Mtb Pks13-TE domain (wild-type) (Mycobacterium tuberculosis, UniProt I6X8D2). The experiment in a line: biochemical. In kind it is biochemical.
Another series relates to M tuberculosis. In kind it is in vivo, Mycobacterium tuberculosis in GKO mice.
The subject of another series is Mtb strain mc^27000. As to the kind of experiment: microbe, parasite or virus in culture. In kind it is cell-based, Mycobacterium tuberculosis. The following applies: Mycobacterium tuberculosis.
The test system of another series is Mtb (Erdman lux strain). In kind it is in vivo, Mycobacterium tuberculosis in female Balb/C mice.
[3] abbreviates: Pks13-TE, 20 μM 4-MUH, read-out: IC50.
Where [4] appears, read: Pks13 enzyme inhibition, read-out: Pks13 IC50.
The mark [5] stands for this setting: Mtb mc^27000, liquid medium, 96-well plates, read-out: MIC.

The IC50 is the point on the concentration scale where inhibition reaches its midpoint.

Structures are written as SMILES. In brackets after ≈: the same amount, converted by molar mass. Read-outs that look alike come from different tables or passages of the source.

Chain of Mtb Pks13-TE domain (wild-type) (I6X8D2 1451-1733): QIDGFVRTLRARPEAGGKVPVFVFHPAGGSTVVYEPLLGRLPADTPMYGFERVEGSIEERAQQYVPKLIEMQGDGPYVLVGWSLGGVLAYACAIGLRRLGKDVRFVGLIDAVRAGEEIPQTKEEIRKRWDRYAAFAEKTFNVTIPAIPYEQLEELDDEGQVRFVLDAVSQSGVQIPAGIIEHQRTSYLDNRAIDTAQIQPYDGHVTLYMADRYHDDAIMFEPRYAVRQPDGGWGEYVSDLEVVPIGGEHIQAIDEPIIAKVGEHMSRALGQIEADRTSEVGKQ

For `CNC(=O)c1c(-c2ccc(OC)cc2)oc2ccc(O)c(CN3CCCCC3)c12` [compound 31], in series [1], the “Survival vs. Control” value is listed as 111% and the “Non-Toxic Concentration” value is 50 µM. For the same molecule, the concentration for half-maximal inhibition (IC50) in series [2] (setting [3]) stood at 260 nM. For the same molecule, in series [2] (setting [4]), the concentration for half-maximal inhibition (IC50) is 260 nM. Besides, in the series with M tuberculosis (GKO mice, 100 mg/kg oral once daily, 9 days, lungs), the “log CFU reduction in the lungs vs. untreated controls” value was found to be 0.84 log CFU. In addition, the “log CFU reduction in the spleen relative to untreated controls” value in the series on M tuberculosis (GKO mice, 100 mg/kg oral once daily, 9 days, spleen) worked out at 1.54 log CFU. For the same molecule, in the series on M tuberculosis (mouse, in vivo), the “Diff of Means, Control vs. treatment, Lung” value worked out at 0.834; the “Diff of Means, Control vs. treatment, Spleen” value is given as 2.623; the “Diff of Means, Inhibitor 31 vs. Inhibitor 32, Lung” value is 0.340; the “Diff of Means, Inhibitor 31 vs. Inhibitor 32, Spleen” value is 0.522. Also, in the series with M tuberculosis (mouse, in vivo), the “Diff of Means, Inhibitor 31 vs. Isoniazid, Lung” value is on record as 2.179; the “Diff of Means, Inhibitor 31 vs. Isoniazid, Spleen” value amounted to 2.101; the “Lung CFU” value was 7.33; the “Lung RLU” value came out at 5.06. Besides, in the series on M tuberculosis (mouse, in vivo), the “Spleen CFU” value is 5.11 and the “Spleen RLU” value is 2.59. Further, the MIC in the series on Mtb strain mc^27000 (setting [5]) amounted to 1.1 µM (≈ 0.434 µg/mL). The MIC with Mtb strain mc^27000 (read-out: Pks13 MIC) was determined as 1.1 µM (≈ 0.434 µg/mL).
Regarding `CNC(=O)c1c(-c2ccc(O)cc2)oc2cc(O)cc(CN3CCCCC3)c12` [compound 47], in series [1], the “Survival vs. Control” value is 98% and the “Non-Toxic Concentration” value stood at 50 µM. Also, in series [2] (setting [3]), the half-maximal inhibitory concentration (IC50) was 570 nM. Also, the “activity in the lungs or the spleen, in words” value in the series on M tuberculosis (GKO mice, 300 mg/kg dosing) was “did not show any activity”. Besides, in the series with M tuberculosis (mouse, in vivo), the “Lung CFU” value is 8.39, the “Lung RLU” value came to 6.09, the “Spleen CFU” value is 6.84 and the “Spleen RLU” value is 4.45. In the series with Mtb strain mc^27000 (setting [5]), the MIC was 1 µM (≈ 0.38 µg/mL). Also, the MIC with Mtb strain mc^27000 (read-out: Pks13 MIC) stood at 1 µM (≈ 0.38 µg/mL).
Consider `NNC(=O)c1ccncc1` [isoniazid, reference compound], for which the “log reduction (CFU) in the spleen” value with Mtb (Erdman lux strain) (Balb/C mice, isoniazid control 25 mg/kg, 4 weeks, spleen) is listed as 2.52 log. Also, the “Diff of Means, Control vs. treatment” value in the series on Mtb (Erdman lux strain) ([…], organ not given, values match spleen reductions of b137) came out at 2.523. For the same molecule, in the series with Mtb (Erdman lux strain) (mouse, in vivo), the “Lung CFU” value worked out at 4.98, the “Lung RLU” value amounted to 2.37, the “Spleen CFU” value turned out to be 2.35 and the “Spleen RLU” value is 1.59. Moreover, in the series on Mtb (Erdman lux strain) (mouse, in vivo), the “log reduction (CFU) in the lungs” value was 1.11 log. For the same molecule, in the series on M tuberculosis (mouse, in vivo), the “Diff of Means, Control vs. treatment, Lung” value worked out at 3.013; the “Diff of Means, Control vs. treatment, Spleen” value is 3.644; the “Lung CFU” value stood at 5.15; the “Lung RLU” value was found to be 3.51. In the series on M tuberculosis (mouse, in vivo), the “Spleen CFU” value was 2.49, the “Spleen RLU” value worked out at 1.77, the “log CFU reduction in the spleen” value amounted to 4.16 log CFU and the “log CFU reduction relative to untreated control in the lungs” value is 3.02 log CFU. The “log reduction in RLU (luciferase assay)” value with M tuberculosis (mouse, in vivo, 25 mg/kg) is on record as 1.01 log.
With `CCOC(=O)c1c(-c2ccccc2)oc2ccc(O)c(CCN3CCCC3)c12` [compound 102], the “Survival vs. Control” value in series [1] worked out at 91%. Further, in series [1], the “Non-Toxic Concentration” value is 1.56 µM. In addition, the half-maximal inhibitory concentration (IC50) in series [2] (setting [3]) was determined as 2500 nM; in series [2] (setting [4]), 700 nM. In addition, the MIC in the series with Mtb strain mc^27000 (setting [5]) was determined as 0.7 µM (≈ 0.266 µg/mL).
`CCOC(=O)c1c(-c2ccc(C#N)cc2)oc2ccc(O)c(CN3CCCCC3)c12` [compound 62]: the “Survival vs. Control” value in series [1] was 90%. Besides, in series [1], the “Non-Toxic Concentration” value came to 6.25 µM. Also, the IC50 in series [2] (setting [3]) and in series [2] (setting [4]) was 270 nM each time. For the same molecule, the MIC with Mtb strain mc^27000 (setting [5]) and in the series on Mtb strain mc^27000 (read-out: Pks13 MIC) was 1.5 µM (≈ 0.607 µg/mL) each time.
Regarding `CCOC(=O)c1c(-c2ccccc2)oc2cc(O)cc(CN3CCCCC3)c12` [compound 38], in series [1], the “Survival vs. Control” value was found to be 111% and the “Non-Toxic Concentration” value was 100 µM. Moreover, in series [2] (setting [4]), the IC50 worked out at 450 nM. Also, in the series on Mtb strain mc^27000 (setting [5]), the MIC is 6.7 µM (≈ 2.54 µg/mL). Moreover, the MIC in the series with Mtb strain mc^27000 (read-out: Pks13 MIC) worked out at 6.7 µM (≈ 2.54 µg/mL).
